Read-outs that look alike come from different tables or passages of the source.
How the values were obtained:
MDR1-MDCK monolayer = MDR1-MDCK monolayer permeability assay; format: in vitro ADME; details: dog
Procedure: (§1) We characterized the in vitro ADME properties of 8a in preparation for evaluation of this compound in our primary in vivo model in gerbils. […] We were pleased to find that 8a was able to kill 100% of both male and female worms in the gerbil peritoneum when dosed subcutaneously at 100 mg/kg/day for 14 days as a suspension in a nonsolubilizing HEC/Tween vehicle. […] The subsequent assessment of the pharmacokinetics of 8a from these two dosing paradigms provided an interesting observation that we believe to be important in understanding the PK–PD requirements for achieving efficacy in this animal model. […] We had made the same observation in a positive control group using flubendazole at a subcutaneous dose of 10 mg/kg/day for 5 days in the nonsolubilizing HEC/Tween vehicle, namely, that plasma levels of flubendazole were maintained above the in vitro IC50 (4 nM) for over 42 days, consistent with data reported in the literature.[43] […] We next examined 8a in two additional in vivo models, the first where L3 B. pahangi larvae were injected into the peritoneum of gerbils and allowed to develop into adult worms[45] and a second where gerbils were naturally infected by the filarial nematode Litomosoides sigmodontis.[46],[47] In both of these models, 8a was administered subcutaneously at 100 mg/kg for 14 days or orally at 100 mg/kg for 28 days as a suspension. […] Additionally, when plasma obtained from treated animals at necropsy was analyzed for 8a, we observed an outcome similar to that observed in the adult implantation model, e.g., that measurable levels were present at this time point in the subcutaneous-dosed groups but not in the orally dosed groups, weeks after administration of the drug. In a final L. sigmodontis experiment with 8a, we dosed the compound subcutaneously at 300 mg/kg for 7 days as a suspension.

[1] = Metabolic stability in gerbil microsomes; format: in vitro ADME
Procedure: We characterized the in vitro ADME properties of 8a in preparation for evaluation of this compound in our primary in vivo model in gerbils. […] We were pleased to find that 8a was able to kill 100% of both male and female worms in the gerbil peritoneum when dosed subcutaneously at 100 mg/kg/day for 14 days as a suspension in a nonsolubilizing HEC/Tween vehicle. […] The subsequent assessment of the pharmacokinetics of 8a from these two dosing paradigms provided an interesting observation that we believe to be important in understanding the PK–PD requirements for achieving efficacy in this animal model. […] We had made the same observation in a positive control group using flubendazole at a subcutaneous dose of 10 mg/kg/day for 5 days in the nonsolubilizing HEC/Tween vehicle, namely, that plasma levels of flubendazole were maintained above the in vitro IC50 (4 nM) for over 42 days, consistent with data reported in the literature.[43] […] Additionally, when plasma obtained from treated animals at necropsy was analyzed for 8a, we observed an outcome similar to that observed in the adult implantation model, e.g., that measurable levels were present at this time point in the subcutaneous-dosed groups but not in the orally dosed groups, weeks after administration of the drug. […]

Brugia pahangi = Brugia pahangi L3 injection in vivo model in gerbils; details: B. pahangi, necropsy day 63, QD
Procedure: as §1
(§2) Plates were incubated at 37 °C in a 5% CO2 incubator for 6 days, then molting was assessed visually using an inverted microscope. Molting was determined in each well by counting the presence of fourth stage larvae (L4s) and empty casts of L3s.
(§3) The percent inhibition of molting was calculated based on the number of treated larvae that were able to molt in comparison to the number of control larvae that had successfully molted. IC50 values were calculated using GraphPad Prism v6.0
(§4) (http://www.graphpad.com). See Bullman et al., PLoS Negl. Trop.
(§5) Adult Brugia malayi transplantation in vivo model procedure.
(§6) Gerbils (Meriones unguiculatus) were infected by transplantation of 10 male and 10 female adult Brugia malayi into the peritoneal cavity. Gerbils were acclimated for 7 days prior to treatment. Animals were dosed based on their body weight prior to each dosing. Animals were administered their doses at the same time each day and receive standard rodent laboratory diet and water ad libitum. Gerbils were humanely euthanized at the conclusion of each study. Peritoneal counts of male and female adult B. malayi and visual condition of the peritoneum were recorded.
Brugia pahangi L3 injection in vivo model procedure 8. […]
(Filariatech, Inc., Athens, GA). […] All gerbils were dosed in accordance with their body weight determined prior to each dosing. […]
The adult Brugia worms were recovered by opening the body cavity and washing the peritoneal cavity with 100 mL of phosphate buffered saline. Male and female worms were counted using a […]

Brugia malayi = assay: Adult Brugia malayi transplantation in vivo model in gerbils; details: for adult worm reduction / animals with no worms: B. malayi, necropsy day 42, QD
Procedure: as §1, §2, §3, §4, §5, §6
Brugia pahangi L3 injection in vivo model procedure 8.
Male gerbils (Meriones unguiculatus) approximately 6 weeks of age (50-60 g) were purchased from Charles Rivers (USA, Kingston K62 Gerbils) and infected by intraperitoneal injection with 200 Brugia pahangi third-stage larvae (L3) per animal
(Filariatech, Inc., Athens, GA). Gerbils were housed with no more than 5 animals per cage and maintained 9 months prior to treatment. All gerbils were dosed in accordance with their body weight determined prior to each dosing. Animals were […]

micronucleus [2] = test system: micronucleus; design: method as in PMID 26443851; details: in vivo; cited from earlier work
pregnant female rats = test system: pregnant female rats; design: method as in PMID 23287076, PMID 24994687; details: dosed to pregnant female rats; cited from earlier work
rat whole embryo culture = test system: rat whole embryo culture; design: method as in PMID 23287076, PMID 24994687; details: cited from earlier work
micronucleus [3] = test system: micronucleus; design: method as in PMID 26443851; details: in vitro; cited from earlier work
[4] = 100 mg/kg × 14 days, SC (suspension)
[5] = 100 mg/kg × 28 days, PO (suspension)
[6] = 150 mg/kg × 14 days, SC (solution)

## COC(=O)Nc1nc2cc(C(=O)NCc3ccc4c(c3)B(O)OC4(C)C)ccc2[nH]1 [8a]
MDR1-MDCK monolayer
  Papp with Pgp efflux inhibitor GF-120918: 2.7 × 10^–6 cm/s
[1]
  microsomal CLint: < 4 µL/min/mg
Brugia pahangi; [4]
  adult worm reduction: 100%
Brugia pahangi; [5]
  adult worm reduction: 24%
  animals with no worms: 0%
Brugia malayi; [4]
  adult worm reduction: 100%
  animals with no worms: 87.5%
Brugia malayi; [5]
  adult worm reduction: 12.5%
  animals with no worms: 0%
Brugia malayi; [6]
  adult worm reduction: 83.3%
  animals with no worms: 50%
Brugia malayi; SC 150 mg/kg/day as a solution in DMSO/water vehicle
  in vivo efficacy: substantially reduced
Brugia malayi; implanted adult B. malayi or B. pahangi, SC 100 mg/kg/day for 14 days, suspension in HEC/Tween vehicle
  kill of both male and female worms in the gerbil peritoneum: 100%
Brugia malayi; oral, 100 mg/kg/day for 28 days
  in vivo efficacy by the oral route: not efficacious

## COC(=O)Nc1nc2cc(C(=O)c3ccc(F)cc3)ccc2[nH]1 [compound 1, Flubendazole, reference compound]
Micronucleus [2]
  micronucleus test result: aneugen
Pregnant female rats
  embryotoxicity: potentially embryotoxic
Rat whole embryo culture
  embryotoxicity: potentially embryotoxic
Micronucleus [3]
  micronucleus test result: aneugen
Brugia pahangi; 10 mg/kg × 5 days, SC
  adult worm reduction: 100%/100%
  animals with no worms: 100%/100%
Brugia malayi; 10 mg/kg × 5 days, SC
  adult worm reduction: 100%/100%
  animals with no worms: 100%/100%

Source: article PMC7026885, “Macrofilaricidal Benzimidazole–Benzoxaborole Hybrids as an Approach to the Treatment of River Blindness: Part 1. Amide Linked Analogs” (ACS Infectious Diseases, 2019)
